Patent publication US20250034161A1, “SPIROCYCLIC COMPOUND AS KRAS-G12C INHIBITOR” (Shanghai Euregen Biopharma Co., Ltd., priority 2020, published 2025)

Columns and labels:
[1] = Plasma protein binding assay (equilibrium dialysis), dog plasma; format: in vitro ADME; conditions: pH 7.4, equilibrium dialysis 5 hours, read-out: Plasma protein binding rate (%) (converted)
Procedure: (§1) • 1. Test purpose: to evaluate the protein binding rate of the test compound in human, dog, monkey, rat and mouse plasma by equilibrium dialysis; • 2. […] Experimental methods: • 0.1 mol/L sodium phosphate and 0.15 mol/L sodium chloride buffer with pH 7.4±0.1 was preheated;
(§2) Preparation of plasma containing test substance: the test compound was dissolved in DMSO to prepare a 10 mmol/l stock solution. 5 μL of stock solution was taken and diluted with 95 μL of acetonitrile to obtain solution A (0.5 mmol/L). 8 μL of solution A was taken and diluted with 192 μL of 0.1 mol/L sodium phosphate buffer to obtain solution B (0.02 mmol/L). 570 μL of plasma was added into a 96-well plate followed by the addition of 30 μL of solution B. The final concentration was 1 μmol/L with 0.01% DMSO.
(§3) The plate was shook at 600 rpm for 10 minutes, covered and stored in a freezer (−20° C.).
(§4) T5 sample preparation (in triplicate): the dialysis device was added with 100 μL of buffer on its receiver side and 100 μL of plasma containing the test compound on its doner side. And the dialysis device was then shook at 37° C. and 120 rpm for 5 hours. At the end of culture, 25 μL of plasma containing the test substance was taken from the plasma side and then added to a 96-well plate, followed by the addition of 25 μL of buffer and 200 μL of acetonitrile solution containing internal standard. […]

CYP 2C9 = CYP 2C9 (Homo sapiens, UniProt P11712); experiment: CYP inhibition test, human liver microsomes, CYP2C9
Procedure: • 1. Test purpose: to evaluate the inhibitory ability of some of the example compounds of the present invention against CYP1A2, 2B6, 2C8, 2C9, 2C19, 2D6 and 3A4 via human liver microsomes. • 2. […] Test method:
• 1. K/Mg buffer: the components were 0.1 mol/L potassium phosphate and 5 mmol/L magnesium chloride with pH 7.4±0.1, preheated. • 2. Solution of the test compound: the test compound was dissolved in dimethyl sulfoxide to prepare a stock solution of 10 mmol/L. 8 μL of 10 mmol/L stock solution was transferred to a 96-well plate containing 12 μL of acetonitrile as the highest concentration point, at 3-fold dilution, for 8 concentrations. • 3. NADPH solution: 66.7 mg of NADPH was dissolved in 10 mL of 0.1 mol/L K/Mg buffer to obtain 8 mmol/L NADPH solution with pH 7.4. • 4. Human liver microsomal stock solution: human liver microsomes were dissolved in 0.1 mol/L K/Mg buffer to obtain 20 mg/mL stock solution. • 5. Human liver microsomal working solution: 10 μL of 20 mg/mL human liver microsomal stock solution was taken and added into 990 μL of 0.1 mol/L K/Mg buffer to prepare 0.2 mg/mL human liver microsomal solution. • 6. […]

[2] = Plasma protein binding assay (equilibrium dialysis), rat plasma; format: in vitro ADME; conditions: pH 7.4, equilibrium dialysis 5 hours, read-out: Plasma protein binding rate (%) (converted)
Procedure: as §1, §2, §3, §4

[3] = Plasma protein binding assay (equilibrium dialysis), human plasma; format: in vitro ADME; conditions: pH 7.4, equilibrium dialysis 5 hours, read-out: Plasma protein binding rate (%) (converted)
Procedure: as §1, §2, §3, §4

[4] = Whole blood stability assay, dog whole blood; format: in vitro ADME; conditions: 37° C.
Procedure: • 1. Test purpose: to determine the whole blood stability of the compounds by monitoring the clearance rate of the parent compound after incubation of some of the example compounds of the invention with dog and rat whole blood. • 2. […] Test method:
Then, the stock solution of the test compound was diluted to 1 mmol/L and 0.2 mmol/L with 70% acetonitrile aqueous solution, respectively, as working solution.
The working solution was added to the whole blood. The concentration of each test compound was 5 μmol/L. 90 μL was taken and then mixed evenly with 90 μL of water. Then 600 μL of acetonitrile termination solution containing propranolol as internal standard was added. Incubated at 37° C. in a water bath and shook gently. At 30, 60, 120 and 240 minutes, 90 μL of each mixture was placed on a clean 96-well plate prefilled with 90 μL of water, mixed well, and then 600 μL of acetonitrile termination solution containing propranolol as internal standard was added and centrifuged at 5000 g for 15 min. 80 μL of the supernatant was taken and placed in a 96-well plate preloaded with 160 μL of ultrapure water, then analyzed by LC-MS/MS.

Sequence of CYP 2C9 (P11712 whole entry): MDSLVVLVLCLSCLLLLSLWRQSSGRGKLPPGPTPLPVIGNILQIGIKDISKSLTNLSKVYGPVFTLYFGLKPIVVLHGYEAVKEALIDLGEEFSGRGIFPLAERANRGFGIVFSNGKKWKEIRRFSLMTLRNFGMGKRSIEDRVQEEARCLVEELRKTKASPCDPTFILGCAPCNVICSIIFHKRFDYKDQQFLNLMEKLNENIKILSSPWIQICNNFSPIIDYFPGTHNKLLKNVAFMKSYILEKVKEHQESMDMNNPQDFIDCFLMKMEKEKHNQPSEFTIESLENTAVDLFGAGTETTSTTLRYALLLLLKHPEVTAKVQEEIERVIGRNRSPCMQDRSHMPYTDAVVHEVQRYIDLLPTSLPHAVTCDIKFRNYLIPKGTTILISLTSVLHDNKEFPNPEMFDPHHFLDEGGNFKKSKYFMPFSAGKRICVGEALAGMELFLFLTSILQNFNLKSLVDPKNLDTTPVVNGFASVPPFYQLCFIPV

Structure (SMILES) | fraction unbound at 5 h, 1 μmol/L [1] | IC50 (CYP 2C9) | fraction unbound at 5 h, 1 μmol/L [2] | fraction unbound at 5 h, 1 μmol/L [3] | half-life at 5 μmol/L [4]
C=CC(=O)N1CCN(c2nc(=O)n(-c3c(C)ccnc3C(C)C)c3nc(-c4c(O)cccc4F)c(F)cc23)[C@@H](C)C1 [AMG510] | 0.079 | > 10 µM | 0.141 | 0.075 | 1.46 h
C=C(F)C(=O)N1CCN(c2nc(OC[C@@H]3CCCN3C)nc3c2CCN(c2cccc4cccc(Cl)c24)C3)C[C@@H]1CC#N [MRTX849] | 0.012 | 1.35 µM | 0.01 | 0.018 | 6.15 h
